PubChem BioAssay (NCI)
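Tested at 5 concentrations; 48 h exposure; 96-well plates; endpoints linearly interpolated, else capped at highest concentration. GI50 = concentration required for 50% inhibition of growth. At the TGI there is no net growth.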

Columns and labels:
Experiment in all cases: NCI-60 cell line screen, 48 h
[1] = system: OVCAR-4 ovarian
[2] = system: IGROV1 ovarian
[3] = system: SK-MEL-2 melanoma
[4] = system: HCT-116 colon
[5] = system: RPMI-8226 leukemia
[6] = system: ACHN renal
[7] = system: SNB-75 CNS
[8] = system: NCI-H460 lung
[9] = system: SN12C renal
[10] = system: CAKI-1 renal

Cc1nc2ccc(NCCN(C)C)c3c(=O)c4cc(O)ccc4n1c23
TGI [1]: 3.38 µM
TGI [2]: 9.46 µM
TGI [3]: 13.4 µM
TGI [4]: 2.22 µM
TGI [5]: 6.23 µM
TGI [6]: 1.94 µM
TGI [7]: 5.63 µM
TGI [8]: 1.39 µM
TGI [9]: 4.93 µM
TGI [10]: 3.94 µM

COc1ccc(S(=O)(=O)N/N=C(\C)CN2C(=O)c3ccccc3C2=O)cc1
TGI [1]: > 100 µM
TGI [2]: > 100 µM
TGI [3]: > 100 µM
TGI [4]: > 100 µM
TGI [5]: > 100 µM
TGI [6]: > 100 µM
TGI [7]: > 100 µM
TGI [8]: > 100 µM
TGI [9]: > 100 µM
TGI [10]: > 100 µM

Cn1cnc([N+](=O)[O-])c1Sc1nnc(C(F)(F)F)n1C
TGI [1]: 62.6 µM
TGI [2]: > 100 µM
TGI [3]: 48.5 µM
TGI [4]: 32.5 µM
TGI [5]: 49.9 µM
TGI [6]: 57.4 µM
TGI [7]: > 100 µM
TGI [8]: > 100 µM
TGI [9]: > 100 µM
TGI [10]: > 100 µM

Cc1ccc([Se][Se]c2ccc(C)cc2)cc1
TGI [1]: 36.9 µM
TGI [2]: > 100 µM
TGI [3]: > 100 µM
TGI [4]: > 100 µM
TGI [5]: 31.8 µM
TGI [6]: > 100 µM
TGI [7]: 42.2 µM
TGI [8]: > 100 µM
TGI [9]: > 100 µM
TGI [10]: > 100 µM

COc1cccc2c1C(=O)c1c(O)c3c(c(O)c1C2=O)C[C@@](O)(/C(C)=N\O)C[C@@H]3OC1CC(N)C(O)C(C)O1 (stereo partly drawn)
TGI [1]: 17.3 µM
TGI [2]: 17.2 µM
TGI [3]: 2.48 µM
TGI [4]: 7.55 µM
TGI [5]: 8.33 µM
TGI [6]: 10.8 µM
TGI [7]: 2.54 µM
TGI [8]: 8.16 µM
TGI [9]: 13.1 µM
TGI [10]: 22.6 µM

O=C(/C=C/c1ccc(Cl)cc1)c1ccncc1
TGI [1]: > 100 µM
TGI [2]: > 100 µM
TGI [3]: > 100 µM
TGI [4]: > 100 µM
TGI [5]: > 100 µM
TGI [6]: > 100 µM
TGI [7]: 83.6 µM
TGI [8]: > 100 µM
TGI [9]: > 100 µM
TGI [10]: > 100 µM

O=C(O/N=C1/CCCC/C1=C\c1ccccc1)c1ccc(Cl)cc1
TGI [1]: > 100 µM
TGI [2]: > 100 µM
TGI [3]: > 100 µM
TGI [4]: > 100 µM
TGI [5]: > 100 µM
TGI [6]: > 100 µM
TGI [7]: > 100 µM
TGI [8]: > 100 µM
TGI [9]: > 100 µM
TGI [10]: > 100 µM

CCOC(=O)C1(C(=O)OCC)CC=C(C)CC12C(=O)Nc1ccccc12 (stereo not drawn)
TGI [1]: > 100 µM
TGI [2]: > 100 µM
TGI [3]: > 100 µM
TGI [4]: > 100 µM
TGI [5]: > 100 µM
TGI [6]: > 100 µM
TGI [7]: > 100 µM
TGI [8]: > 100 µM
TGI [9]: > 100 µM
TGI [10]: > 100 µM

CC1=C(c2cc(C(=O)Nc3cccc(C(F)(F)F)c3)nc(NC#N)n2)Sc2ccccc2N1
TGI [1]: > 100 µM
TGI [2]: > 100 µM
TGI [3]: > 100 µM
TGI [4]: > 100 µM
TGI [5]: > 100 µM
TGI [6]: > 100 µM
TGI [7]: > 100 µM
TGI [8]: > 100 µM
TGI [9]: > 100 µM
TGI [10]: > 100 µM

O=C1C=C(Nc2nc(C(=O)O)cc(=O)[nH]2)c2ccccc2C1=O
TGI [1]: > 100 µM
TGI [2]: > 100 µM
TGI [3]: > 100 µM
TGI [4]: > 100 µM
TGI [5]: > 100 µM
TGI [6]: > 100 µM
TGI [7]: > 100 µM
TGI [8]: > 100 µM
TGI [9]: > 100 µM
TGI [10]: > 100 µM

O=C1c2ccccc2C2(O)Oc3cccc(O)c3C12O (stereo not drawn)
TGI [1]: > 100 µM
TGI [2]: > 100 µM
TGI [3]: > 100 µM
TGI [4]: > 100 µM
TGI [5]: > 100 µM
TGI [6]: > 100 µM
TGI [7]: > 100 µM
TGI [8]: > 100 µM
TGI [9]: > 100 µM
TGI [10]: > 100 µM

C=CCNC(=S)OCCCCCCCCCC
TGI [1]: 30.5 µM
TGI [2]: 35.7 µM
TGI [3]: 24.8 µM
TGI [4]: 30.6 µM
TGI [5]: 38.9 µM
TGI [6]: 32.7 µM
TGI [7]: 49.8 µM
TGI [8]: 33 µM
TGI [9]: 31.7 µM
TGI [10]: 34 µM

COc1ccc(-c2[nH]ncc2-c2cc(OC)c(OC)c(OC)c2)cc1
GI50 [1]: < 0.0397 µM
TGI [1]: 29.6 µM
GI50 [2]: < 0.01 µM
TGI [2]: 7.73 µM
GI50 [3]: < 0.01 µM
TGI [3]: 0.517 µM
GI50 [4]: < 0.01 µM
TGI [4]: 12.2 µM
GI50 [5]: 0.0132 µM
TGI [5]: 16 µM
GI50 [6]: < 0.01 µM
TGI [6]: > 42.9 µM
GI50 [7]: < 0.01 µM
TGI [7]: 21 µM
GI50 [8]: < 0.01 µM
TGI [8]: 1.3 µM
TGI [9]: > 81.8 µM
GI50 [10]: < 0.01 µM
TGI [10]: 25 µM

CC12CCC(O)CC1CCC1C2CCC2(C)C(C3=CC(=O)OC3)CCC12 (stereo not drawn)
TGI [1]: > 73.2 µM
GI50 [2]: 20.5 µM
TGI [2]: > 71 µM
GI50 [3]: 7.49 µM
TGI [3]: 29.8 µM
GI50 [4]: 25.5 µM
TGI [4]: > 100 µM
GI50 [5]: 1.27 µM
TGI [5]: > 100 µM
GI50 [6]: 26.4 µM
TGI [6]: > 91.3 µM
GI50 [7]: 6.9 µM
TGI [7]: 21.2 µM
GI50 [8]: 0.493 µM
TGI [8]: > 100 µM
GI50 [9]: 53.8 µM
TGI [9]: > 100 µM
GI50 [10]: > 55.7 µM
TGI [10]: > 100 µM

COP1(=S)OCC2CCC[C@@H]2O1 (stereo partly drawn)
TGI [1]: > 100 µM
TGI [2]: > 100 µM
TGI [3]: > 100 µM
TGI [4]: > 100 µM
TGI [5]: > 100 µM
TGI [6]: > 100 µM
TGI [7]: > 100 µM
TGI [8]: > 100 µM
TGI [9]: > 100 µM
TGI [10]: > 100 µM

COC(=O)[C@]12CC[C@@H](C)[C@H](C)[C@@H]1C1=CC[C@@H]3[C@@]4(C)C=C(O)C(=O)C(C)=C4CC[C@@]3(C)[C@]1(C)CC2
GI50 [1]: 11.9 µM
TGI [1]: 26.3 µM
GI50 [2]: 13.4 µM
TGI [2]: 36.5 µM
GI50 [3]: 14.6 µM
TGI [3]: 31.6 µM
GI50 [4]: 6.03 µM
TGI [4]: 20.6 µM
GI50 [5]: 8.62 µM
TGI [5]: 32.8 µM
GI50 [6]: 5.4 µM
TGI [6]: 19.3 µM
GI50 [7]: 13.9 µM
TGI [7]: 31.3 µM
GI50 [8]: 18.9 µM
TGI [8]: 37.3 µM
GI50 [9]: 19.2 µM
TGI [9]: 50.4 µM
GI50 [10]: 12.4 µM
TGI [10]: 31.4 µM

N#Cc1nc(Nc2ccc([N+](=O)[O-])cc2)sc1N
TGI [1]: > 100 µM
TGI [2]: > 100 µM
TGI [3]: 53.2 µM
TGI [4]: > 100 µM
TGI [5]: > 59.2 µM
TGI [6]: 50.9 µM
TGI [7]: > 100 µM
TGI [8]: > 100 µM
TGI [9]: > 74.6 µM
TGI [10]: 56.7 µM

NCC(=O)CCC(=O)O
GI50 [1]: > 100 µM
TGI [1]: > 100 µM
GI50 [2]: > 100 µM
TGI [2]: > 100 µM
GI50 [3]: > 100 µM
TGI [3]: > 100 µM
GI50 [4]: > 100 µM
TGI [4]: > 100 µM
GI50 [5]: > 100 µM
TGI [5]: > 100 µM
GI50 [6]: > 100 µM
TGI [6]: > 100 µM
GI50 [7]: > 100 µM
TGI [7]: > 100 µM
GI50 [8]: > 100 µM
TGI [8]: > 100 µM
GI50 [9]: > 100 µM
TGI [9]: > 100 µM
GI50 [10]: > 100 µM
TGI [10]: > 100 µM
